Experimental data as given in patent US20050209157A1, “Short bioactive peptides and methods for their use” (priority 2001, published 2005).
No end group written: not given here.

Key:
S. aureus (MRSA) = assay type: cell-based, Staphylococcus aureus; settings: Table 15, strain SAP0017; in µg/mL
S. epidermidis C621 = assay type: cell-based, Staphylococcus epidermidis; settings: Table 15
E. coli UB1005 = assay type: cell-based, Escherichia coli; settings: Table 14
S. typhimurium 14028S = assay type: cell-based, Salmonella typhimurium; settings: Table 14
P. aeruginosa H374 = assay type: cell-based, Pseudomonas aeruginosa; settings: Table 14; in µg/mL
[1] = system: Pseudomonas aeruginosa H187; assay type: cell-based; settings: Table 15; in µg/mL
Candida albicans 105 = assay type: cell-based; settings: Table 15; in µg/mL

Substance	MIC S. aureus SAP0017 (S. aureus (MRSA))	MIC S. epidermidis C621 (S. epidermidis C621) [µg/mL]	MIC E. coli UB1005 (E. coli UB1005) [µg/mL]	MIC S. typhimurium 14028S (S. typhimurium 14028S) [µg/mL]	MIC P. aeruginosa H374 (P. aeruginosa H374)	MIC P. aeruginosa H187 [1]	MIC C. albicans 105 (Candida albicans 105)
KFKKLAKKF-NH2 [P174 (135)]	>128	> 128	> 128	> 128	>128	>128	>128
FAKLLAKAFKKAL-NH2 [P114 (78)]	>128	64	32	128	>128	>128	64
FAKLLFKALKKAL-NH2 [P112 (76)]	>128	64	> 128	> 128	>128	>128	128
KAKLF-NH2 [P130 (92)]	>128	> 128	> 128	> 128	>128	>128	>128
VALALKALKKL-NH2 [P180 (141)]	>128	> 128	> 128	> 128	>128	>128	>128
FAFGKGIGKVGKKLL-NH2 [P133 (95)]	>128	> 128	> 128	> 128	>128	>128	>128
FAKLLAKLAKKGL-NH2 [P152 (114)]	>128	32	32	> 128	>128	>128	128
KFKKLAKKW-NH2 [P175 (136)]	>128	> 128	> 128	> 128	>128	>128	>128
KWKLF-NH2 [P131 (93)]	>128	> 128	> 128	> 128	>128	>128	>128
FALLKL-NH2 [P168 (129)]	>128	128	128	> 128	128	128	128
FGKGIGKVGKKLL-NH2 [P132 (94)]	>128	> 128	128	> 128	>128	>128	128
FAKAIAKIAFGKGIGKVGKKLL-NH2 [P134 (96)]	>128	128	128	> 128	128	>128	64
FAKGVGKVGKKAL-NH2 [P137 (99)]	>128	> 128	> 128	> 128	>128	>128	>128
FALKALKKAL-NH2 [P170 (131)]	0.128	> 128	64	> 128	>128	>128	128
FALLKALKKAL-NH2 [P171 (132)]	>128	128	32	> 128	>128	>128	>128
FAKIIAKIAKIAKKIL-NH2 [P139 (101)]	>128	64	64	> 128	>128	128	128
YAKLLAKLAKKAL-NH2 [P155 (117)]	>128	> 128	> 128	> 128	>128	>128	>128
FAKLLAKLAKK-NH2 [P151 (113)]	>128	> 128	> 128	> 128	128	>128	128
FAKKLAKKLAKAAL-NH2 [P76 (52)]	>128	> 128	16	128	64	>128	64
FAKLWAKLAKKL-NH2 [P136 (98)]	>128	128	128	> 128	>128	>128	64
FAKLLAKLAKKSL-NH2 [P127 (89)]	>128	64	128	> 128	>128	>128	32
FAKLA-NH2 [P128 (90)]	>128	128	128	> 128	>128	>128	128
FKRLAKIKVLRLAKIKR-NH2 [P147 (109)]	>128	64	64	128	128	>128	64
FAKLFAKLAKKFAL-NH2 [P121 (83)]	>128	> 128	> 128	> 128	>128	>128	64
FAKLLAKLAKKFAL-NH2 [P120 (82)]	>128	> 128	> 128	> 128	128	>128	64
FAKLLAKLAK-NH2 [P123 (85)]	>128	16	64	> 128	>128	>128	64
